The text below walks through data of patent publication US7517874B2 (priority 2007, dated 2009).

Where two headings read alike, the source gives them in different places.

As usually defined, the EC50 is the concentration that produces a half-maximal response.

For one experiment, the target named is T1, rat CB2 receptor (rCB2) (Rattus norvegicus, UniProt Q9QZN9).
T1 sequence (Q9QZN9 1-360): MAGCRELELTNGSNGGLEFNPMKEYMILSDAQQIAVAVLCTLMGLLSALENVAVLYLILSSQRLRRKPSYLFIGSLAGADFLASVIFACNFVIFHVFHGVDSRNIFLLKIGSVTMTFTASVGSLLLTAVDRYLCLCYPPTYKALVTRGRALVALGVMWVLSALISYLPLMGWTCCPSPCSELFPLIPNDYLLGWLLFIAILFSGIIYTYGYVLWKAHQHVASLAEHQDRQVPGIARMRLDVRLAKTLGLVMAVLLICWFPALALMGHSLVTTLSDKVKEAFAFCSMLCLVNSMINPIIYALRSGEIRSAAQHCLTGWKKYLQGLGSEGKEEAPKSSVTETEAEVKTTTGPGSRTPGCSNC
Description: cell-based. It counts as cell-based. Conditions: for +/− RCB2: agonist or inverse agonist at rCB2. In a few lines:
(§1)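 Agonism or inverse agonism was assessed as change in intracellular cAMP in CHO-K1 cells expressing human CB1 or rat CB2 (genomic DNA, pcDNA3.1).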

For experiment [1], the target named is human CB1 receptor (hCB1) (Homo sapiens, UniProt P21554). Description: cell-based. It counts as cell-based. To be noted: for +/− HCB1: agonist or inverse agonist at hCB1. In a few lines: as §1
Sequence of human CB1 receptor (hCB1) (P21554 whole entry): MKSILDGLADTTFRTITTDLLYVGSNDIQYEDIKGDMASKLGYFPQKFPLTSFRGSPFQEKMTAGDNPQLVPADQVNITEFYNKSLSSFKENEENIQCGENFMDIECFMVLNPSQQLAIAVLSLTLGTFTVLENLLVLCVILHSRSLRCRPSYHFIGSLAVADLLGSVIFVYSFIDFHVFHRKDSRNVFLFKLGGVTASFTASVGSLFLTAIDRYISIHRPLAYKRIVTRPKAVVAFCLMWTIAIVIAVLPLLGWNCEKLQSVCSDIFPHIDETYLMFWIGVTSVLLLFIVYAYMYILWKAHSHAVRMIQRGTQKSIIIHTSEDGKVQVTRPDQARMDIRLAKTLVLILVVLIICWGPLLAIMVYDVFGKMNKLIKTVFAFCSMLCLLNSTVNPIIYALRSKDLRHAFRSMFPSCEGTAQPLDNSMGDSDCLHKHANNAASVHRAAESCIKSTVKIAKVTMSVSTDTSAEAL
Setting [2] is: groups >100 nM-10 μM and >10 μM, cAMP, CHO-K1 rCB2, read-out: EC50 RCB2.
The mark [3] stands for this setting: groups >100 nM-10 μM and >10 μM, cAMP, CHO-K1 hCB1, read-out: EC50 HCB1.

Turning to `CN1CCCn2c(-c3ccccc3)nc(C(=O)Nc3cc(C(C)(C)C)on3)c2C1` [Compound 595, N-(5-tert-butylisoxazol-3-yl)-8-methyl-3-phenyl-6,7,8,9-tetrahydro-5H-imidazo[1,5-a][1,4]diazepine-1-carboxamide], the “+/− RCB2” value at rat CB2 receptor (rCB2) is reported as “−”. The compound also registered an EC50 in experiment [1] above 10000 nM.
As to `CNC(=O)[C@@H](NC(=O)c1nc(Cl)n2c1CNCCC2)C(C)(C)C` [Compound 597, (S)-3-chloro-N-(3,3-dimethyl-1-(methylamino)-1-oxobutan-2-yl)-6,7,8,9-tetrahydro-5H-imidazo[1,5-a][1,4]diazepine-1-carboxamide], the “+/− RCB2” value on rat CB2 receptor (rCB2) is “+”. In addition, in experiment [1], the EC50 was above 10000 nM.
`COC(=O)[C@@H](NC(=O)c1nc(-c2ccc(C)cc2F)n2c1CN(C)CCC2)C(C)(C)C` [Compound 469, (S)-methyl 2-(3-(2-fluoro-4-methylphenyl)-8-methyl-6,7,8,9-tetrahydro-5H-imidazo[1,5-a][1,4]diazepine-1-carboxamido)-3,3-dimethylbutanoate]: the EC50 (at rat CB2 receptor (rCB2); in experiment [1]) was above 10000 nM each time.
Turning to `O=C(NC1CCCCC1)c1nc(-c2ccccc2)n2c1CNCC2` [Compound 47, N-cyclohexyl-3-phenyl-5,6,7,8-tetrahydroimidazo[1,5-a]pyrazine-1-carboxamide], the EC50 (on rat CB2 receptor (rCB2) (setting [2]); in experiment [1] (setting [3])) was above 10000 nM throughout.
`CN1CCn2c(-c3ccccc3)nc(C(=O)NC(C)(C)CO)c2C1` [Compound 230, N-(1-hydroxy-2-methylpropan-2-yl)-7-methyl-3-phenyl-5,6,7,8-tetrahydroimidazo[1,5-a]pyrazine-1-carboxamide]: the EC50 (on rat CB2 receptor (rCB2) (setting [2]); in experiment [1] (setting [3])) was above 10000 nM throughout.
Take `CNC(=O)[C@@H](NC(=O)c1nc(C2=CCNCC2)n2c1CN(C)CC2)C(C)(C)C` [Compound 274, (S)-N-(3,3-dimethyl-1-(methylamino)-1-oxobutan-2-yl)-7-methyl-3-(1,2,3,6-tetrahydropyridin-4-yl)-5,6,7,8-tetrahydroimidazo[1,5-a]pyrazine-1-carboxamide]: the “+/− RCB2” value on rat CB2 receptor (rCB2) was “−”. For the same compound, the “+/− HCB1” value in experiment [1] is listed as “+”.
Turning to `CNC(=O)[C@@H](NC(=O)c1nc(/C=C/CN(C)C)n2c1CN(C)CCC2)C(C)(C)C` [Compound 513, (S,E)-N-(3,3-dimethyl-1-(methylamino)-1-oxobutan-2-yl)-3-(3-(dimethylamino)prop-1-enyl)-8-methyl-6,7,8,9-tetrahydro-5H-imidazo[1,5-a][1,4]diazepine-1-carboxamide], on rat CB2 receptor (rCB2), the “+/− RCB2” value was “−”. Moreover, in experiment [1], the EC50 is above 10000 nM.
For `CN1CCn2c(-c3ccc(Cl)cc3F)nc(C(=O)N3CCN(C(=O)c4ccccc4)CC3)c2C1` [Compound 210, (4-benzoylpiperazin-1-yl)(3-(4-chloro-2-fluorophenyl)-7-methyl-5,6,7,8-tetrahydroimidazo[1,5-a]pyrazin-1-yl)methanone], the EC50 (at rat CB2 receptor (rCB2) (setting [2]); in experiment [1] (setting [3])) was above 10000 nM throughout.
For `CN1CCn2c(-c3ccc(Cl)cc3F)nc(C(=O)N3CCC(N4C(=O)Cc5ccccc54)CC3)c2C1` [Compound 222, 1-(1-(3-(4-chloro-2-fluorophenyl)-7-methyl-5,6,7,8-tetrahydroimidazo[1,5-a]pyrazine-1-carbonyl)piperidin-4-yl)indolin-2-one], the concentration giving a half-maximal response (EC50) (on rat CB2 receptor (rCB2); in experiment [1]) was above 10000 nM each time.
Regarding `CNC(=O)[C@H](CC(C)C)NC(=O)c1nc(-c2ccc(F)cc2F)n2c1CN(C)CCC2` [Compound 534, (S)-3-(2,4-difluorophenyl)-8-methyl-N-(4-methyl-1-(methylamino)-1-oxopentan-2-yl)-6,7,8,9-tetrahydro-5H-imidazo[1,5-a][1,4]diazepine-1-carboxamide], the “+/− RCB2” value at rat CB2 receptor (rCB2) is “+”. Moreover, the EC50 in experiment [1] is above 10000 nM.
For `CN1CCn2c(-c3ccc(Cl)cc3F)nc(C(=O)N3CCC(C(N)=O)(N4CCOCC4)CC3)c2C1` [Compound 225], the EC50 (at rat CB2 receptor (rCB2); in experiment [1]) was above 10000 nM throughout.
With `CNC(=O)[C@@H](NC(=O)c1nc(-c2ccc(C)cc2Cl)n2c1CN(C)CCC2)C(C)(C)C` [Compound 367, (S)-3-(2-chloro-4-methylphenyl)-N-(3,3-dimethyl-1-(methylamino)-1-oxobutan-2-yl)-8-methyl-6,7,8,9-tetrahydro-5H-imidazo[1,5-a][1,4]diazepine-1-carboxamide], the EC50 (at rat CB2 receptor (rCB2); in experiment [1]) was above 10000 nM throughout.
`CCCNC(=O)[C@@H](NC(=O)c1nc(-c2ccccc2)n2c1CN(C)CCC2)C(C)(C)C` [Compound 473, (S)-N-(3,3-dimethyl-1-oxo-1-(propylamino)butan-2-yl)-8-methyl-3-phenyl-6,7,8,9-tetrahydro-5H-imidazo[1,5-a][1,4]diazepine-1-carboxamide]: the “+/− RCB2” value on rat CB2 receptor (rCB2) is recorded as “+”. In experiment [1], this compound returned an EC50 above 10000 nM.
For `CNC(=O)[C@@H](NC(=O)c1nc(-c2cccc(F)c2)n2c1CN(C)CCC2)C(C)(C)C` [Compound 345, (S)-N-(3,3-dimethyl-1-(methylamino)-1-oxobutan-2-yl)-3-(3-fluorophenyl)-8-methyl-6,7,8,9-tetrahydro-5H-imidazo[1,5-a][1,4]diazepine-1-carboxamide], in that order: “+” and above 10000 nM.
As to `CN1CCCn2c(-c3ccc(Cl)cc3F)nc(C(=O)N[C@H](C(N)=O)C(C)(C)C)c2C1` [Compound 573, (S)-N-(1-amino-3,3-dimethyl-1-oxobutan-2-yl)-3-(4-chloro-2-fluorophenyl)-8-methyl-6,7,8,9-tetrahydro-5H-imidazo[1,5-a][1,4]diazepine-1-carboxamide], on rat CB2 receptor (rCB2), the “+/− RCB2” value was “+”. The “+/− HCB1” value in experiment [1] is recorded as “+”.
Turning to `CNC(=O)[C@@H](NC(=O)c1nc(-c2ccccn2)n2c1CN(C)CCC2)C(C)(C)C` [Compound 395, (S)-N-(3,3-dimethyl-1-(methylamino)-1-oxobutan-2-yl)-8-methyl-3-(pyridin-2-yl)-6,7,8,9-tetrahydro-5H-imidazo[1,5-a][1,4]diazepine-1-carboxamide], at rat CB2 receptor (rCB2), the “+/− RCB2” value was “+”. Further, the EC50 in experiment [1] was above 10000 nM.
For `Cc1ccc(-c2nc(C(=O)N[C@H](c3nc(C)no3)C(C)(C)C)c3n2CCCN(C(C)C)C3)c(F)c1` [Compound 523, (S)-N-(2,2-dimethyl-1-(3-methyl-1,2,4-oxadiazol-5-yl)propyl)-3-(2-fluoro-4-methylphenyl)-8-isopropyl-6,7,8,9-tetrahydro-5H-imidazo[1,5-a][1,4]diazepine-1-carboxamide], in that order: “−” and above 10000 nM.
Regarding `CNC(=O)[C@@H](NC(=O)c1nc(-c2ccccc2)n2c1CN(Cc1cccnc1)CC2)C(C)(C)C` [Compound 63, (S)-N-(3,3-dimethyl-1-(methylamino)-1-oxobutan-2-yl)-3-phenyl-7-(pyridin-3-ylmethyl)-5,6,7,8-tetrahydroimidazo[1,5-a]pyrazine-1-carboxamide], the EC50 (at rat CB2 receptor (rCB2); in experiment [1]) was above 10000 nM throughout.
Turning to `C[C@@H](NC(=O)c1nc(-c2ccccc2)n2c1CN(C(=O)C1CCOC1)CC2)C1CCCCC1` (stereo partly drawn) [Compound 139, N-((R)-1-cyclohexylethyl)-3-phenyl-7-(tetrahydrofuran-3-carbonyl)-5,6,7,8-tetrahydroimidazo[1,5-a]pyrazine-1-carboxamide], on rat CB2 receptor (rCB2), the “+/− RCB2” value was “−”. Further, in experiment [1], the EC50 was above 10000 nM.
In the case of `CN1CCCn2c(-c3ccc(Cl)c(F)c3)nc(C(=O)N[C@H](C(=O)N(C)C)C(C)(C)C)c2C1` [Compound 560, (S)-3-(4-chloro-3-fluorophenyl)-N-(1-(dimethylamino)-3,3-dimethyl-1-oxobutan-2-yl)-8-methyl-6,7,8,9-tetrahydro-5H-imidazo[1,5-a][1,4]diazepine-1-carboxamide], the “+/− RCB2” value at rat CB2 receptor (rCB2) is given as “+”. Besides, in experiment [1], the “+/− HCB1” value is on record as “+”.
Take `O=C(Nc1ccccc1)c1nc(-c2ccccc2)n2c1CNCC2` [Compound 41, N,3-diphenyl-5,6,7,8-tetrahydroimidazo[1,5-a]pyrazine-1-carboxamide]: the EC50 (on rat CB2 receptor (rCB2) (setting [2]); in experiment [1] (setting [3])) was above 10000 nM each time.
On to `CC(C)C[C@H](NC(=O)c1nc(-c2ccc(F)cc2F)n2c1CN(C)CCC2)C(N)=O` [Compound 568, (S)-N-(1-amino-4-methyl-1-oxopentan-2-yl)-3-(2,4-difluorophenyl)-8-methyl-6,7,8,9-tetrahydro-5H-imidazo[1,5-a][1,4]diazepine-1-carboxamide], for which the “+/− RCB2” value on rat CB2 receptor (rCB2) is “+”. Moreover, in experiment [1], the “+/− HCB1” value was “+”.
Consider `CC(C)CN1CCn2c(-c3ccccc3)nc(C(=O)Nc3ccccc3)c2C1` [Compound 150, 7-isobutyl-N,3-diphenyl-5,6,7,8-tetrahydroimidazo[1,5-a]pyrazine-1-carboxamide], for which, at rat CB2 receptor (rCB2), the “+/− RCB2” value was “−”. In experiment [1], the 50% effective concentration (EC50) is above 10000 nM.
Consider `CNC(=O)[C@H](CC(C)(C)C)NC(=O)c1nc(-c2cc(F)ccc2F)n2c1CN(C)CCC2` [Compound 553, (S)-3-(2,5-difluorophenyl)-N-(4,4-dimethyl-1-(methylamino)-1-oxopentan-2-yl)-8-methyl-6,7,8,9-tetrahydro-5H-imidazo[1,5-a][1,4]diazepine-1-carboxamide], for which the EC50 (on rat CB2 receptor (rCB2); in experiment [1]) was above 10000 nM in each case.
